Earlier results on two compounds are cited in paper PMC5523132 (ACS chemical biology, 2016).

For the data set the following is noted: cited from earlier work.

For the compound `O=C([O-])CN1CCN(CC(=O)[O-])CCN(CC(=O)[O-])CCN(CC(=O)[O-])CC1.[Gd+3]` [[Gd•DOTA], reference compound], the half-life result (adult rats) is listed as “roughly 19 minutes”.
As for RSA: rat serum albumin, the clearance half-life entry (in the rat) was “approx. 48 hours”.
